Three molecules from patent publication US9486440B2, “Uses of indole-ketones or indolidones as neuro-protective drugs” (UNIVERSITY OF MACAU, priority 2011, dated 2016) can be followed below.

Data set [1] relates to iNOS protein expression. Nature of the data set: Western blot of iNOS protein in CGNs after MPP+. The settings on record: 20 μM, 35 μM MPP+. The data set is classed as cell-based, rat. As for the experimental part: Briefly, neurons were harvested in a cell lysis buffer. Protein was separated on SDS-polyacrylamide gel and transferred onto polyvinyldifluoride membranes. After membrane blocking, proteins were detected using primary antibodies. After incubation at 4° C. overnight, signals were obtained after binding to chemiluminescent secondary antibodies. Blots were developed using an ECL plus kit (Amersham Bioscience, Aylesbury, UK) and exposed to Kodak autoradiographic films. All data were from three independent experiments and were expressed as the ratio to optical density (OD) values of the corresponding controls for statistical analyses.
Background: Immunoblotting shows a protein as a band on a membrane.

For data set [2], the system named is intracellular NO. Nature of the data set: Intracellular NO in CGNs after MPP+ (DAF-FM diacetate). The data set is classed as cell-based, rat. The settings on record: 35 μM MPP+. As to the method: (§1) Intracellular NO was monitored with 4-Amino-5-methylamino-2′,7′-difluorofluorescein (DAF-FM) diacetate, a pH-insensitive fluorescent dye that emits increased fluorescence after reaction with an active intermediate of NO formed during the spontaneous oxidation of NO to NO2 (Sheng et al., 2005). DAF-FM solution was added to the culture medium (final concentration: 5 μM). After 30 min in a CO2 incubator, cultures were washed twice with PBS and incubated for an additional 30 min to allow complete de-esterification of the intracellular diacetate for stronger fluorescence. The DAF-FM fluorescence in CGNs was quantified by a multi-detection microplate reader using excitation and emission wavelengths of 495 nm and 515 nm, respectively. The measured fluorescence values were expressed as a percentage of the fluorescence in the control cells.
as §1, with “(4-amino-5-methylamino-2′,7′-difluorofluorescein) DAF-FM” for “4-Amino-5-methylamino-2′,7′-difluorofluorescein (DAF-FM)”, “After incubation for” for “After”, “another” for “an additional”, “strong” for “stronger”

Data set [3] relates to PC12 cells. Description: MPP+-induced neurotoxicity in PC12 cells, MTT assay. Format: cell-based. The settings on record: for cell proliferative or cytotoxic effects of the drug alone, PC12 cells: alone for 26 hours, 10 μM SU4312, 3 μM PTK787/ZK222584; for toxicity to PC12 cells at higher concentration: data not shown; for MPP+-induced neuronal death in PC12 cells (MTT): pre-treatment 2 hours, then 1 mM MPP+ for 24 hours, SU4312 10 μM, PTK787/ZK222584 3 μM. As to the method: The human neuroblastoma SH-SY5Y cells were obtained from ATCC. The cells were maintained in supplemented Dulbecco's modified eagle medium (DMEM), 10% fetal bovine serum, 100 U/ml penicillin, and 100 μg/ml streptomycin in a 37° C., 5% CO2 incubator. PC12 pheochromocytoma cells were also obtained from ATCC. The cells were cultured in medium that consisted of DMEM, 10% heat-inactivated horse serum, 5% fetal bovine serum, 100 U/ml penicillin, and 100 μg/ml streptomycin in a 37° C., 5% CO2 incubator. All experiments were carried out 48 hours after the cells were seeded.
The percentage of surviving neurons in the presence of SU4312 and/or MPP^+ was estimated by determining the activity of mitochondrial dehydrogenases with 3(4,5-dimethylthiazol-2-yl)-2.5-diphenyltetrazolium bromide (MTT) assay (Li et al., 2007). The assay was performed according to the specifications of the manufacturer (MTT kit I; Roche Applied Science). Briefly, the neurons were cultured in 96-well plates, 10 μl of 5 mg/ml MTT labeling reagent was added to each well containing cells in 100 μl of medium, and the plates were incubated for 4 hours in a humidified incubator at 37° C. After the incubation, 100 μl of the solvating solution (0.01 N HCl in 10% SDS solution) was added to each well for 16-20 hours. Absorbance of the samples was measured at a wavelength of 570 nm with 655 nm as a reference wavelength. Unless otherwise indicated, the extent of MTT conversion in cells exposed to MPP^+ is expressed as a percentage of the control.
Background: Tetrazolium dyes change colour on reduction, which living cells bring about.

Data set [4] can be described thus: SU4312 in brain homogenate of rats after i.p. administration (HPLC). Format: in vivo, rat. The settings on record: 12 mg/kg i.p. As for the experimental part: To investigate whether SU4312 could reach the brain, an HPLC method was used to detect SU4312 in the brain homogenate and plasma of rats (Scott et al., 2004; Spitsin et al., 2008). Briefly, after drug administration by i.p., the animals were transcardially perfused with PBS/heparin (1000 U/L). Then rats were sacrificed by decapitation and brain tissue was homogenized. SU4312 in the brain homogenate was extracted with 3 ml […]. After evaporating the solvent, the residue was reconstituted in 50 μl methanol. SU4312 in the brain tissue was identified by an Agilent 1200 Series HPLC coupled with UV detector at a wavelength of 254 nm. Prior to the preparation of brain homogenate, transcardial perfusion with PBS/heparin was conducted in order to remove blood from cerebravascular system so as to avoid the interference of the SU4312 that simply retained in the brain vasculature.
Plasma concentration of SU4312 was also assayed by an HPLC method. Briefly, after drug administration by i.p., serial blood samples were collected through right internal jugular vein catheterization at various time points post-dosing. The plasma samples were treated with acetonitrile and methanol followed by centrifugation, and 20 μl supernatants were injected into the liquid chromatographic system. The mobile phase consisted of a mixture of methanol and water (80:20, v/v) at a flow rate of 1 ml/min.

Data set [5] addresses T1, recombinant human inducible NOS (iNOS) (Homo sapiens, UniProt P35228).
T1 construct: purchased Alexis Biochemicals (Lausen, Switzerland)
Nature of the data set: In vitro NOS activity assay, iNOS. The data set is classed as biochemical. The settings on record: up to 1 mM. As to the method: In the in vitro NOS activity assay (Li et al., 2007), purified recombinant human nNOS, endothelial NOS (eNOS), and inducible NOS (iNOS) were bought from Alexis Biochemicals (Lausen, Switzerland). NOS activity was determined by monitoring the conversion of L-[3H]arginine to [3H]citrulline following the instructions provided in the kit (Calbiochem, USA). The reaction mixture contained a final volume of 40 μl with 25 mM Tris-Cl at pH 7.4, 3 μM tetrahydrobiopterin, 1 μM FAD, 1 μM FMN, 1 mM NADPH, 0.6 mM CaCl2, 0.1 μM calmodulin, 2.5 μg of pure NOS enzyme, 5 μl L-[3H]arginine (Perkin Elmer, Waltham, Mass., USA), and different concentrations of the tested reagents. The reaction mixture was incubated at 22° C. for 45 min. The reaction was quenched by adding 400 μl of stopping buffer (50 mM HEPES, pH 5.5, and 5 mM EDTA) for nNOS and eNOS reactions or by heating reactive tubes for iNOS. Unreacted L-[3H]arginine was then trapped by 100 μl of equilibrated resin provided in a spin cup followed by centrifugation for 30 s at 13,200 rpm. The filtrate was quantified by liquid scintillation counting.

Turning to `Cc1cc(C)c(/C=C2\C(=O)Nc3ccccc32)[nH]1` [SU5416, (3Z)-3-[(3,5-dimethyl-1H-pyrrol-2-yl)methylidene]-1,3-dihydro-2H-indol-2-one], the “MPP+-elevated expression of iNOS protein” value in data set [1] is recorded as “could not affect the elevated expression of iNOS by MPP^+”. In addition, the “MPP+-stimulated NO production” value in data set [2] (measured at 8 hour) is recorded as “antagonized the stimulatory effect of MPP^+ on the NO production with an efficacy similar to 7-nitroindazole (15 μM)”.

On to `CN(C)c1ccc(C=C2C(=O)Nc3ccccc32)cc1` [SU4312, 3-[4-(dimethylamino)benzylidenyl]indolin-2-one], for which, in data set [3], the “cell proliferative or cytotoxic effects of the drug alone, PC12 cells” value was “did not show cell proliferative or cytotoxic effects”; the “toxicity to PC12 cells at higher concentration” value is “at higher concentration conferred toxicity”; the “MPP+-induced neuronal death in PC12 cells (MTT)” value was “prevented MPP^+-induced dopaminergic neuronal death”. Besides, the “MPP+-induced elevation of intracellular NO level” value in data set [2] (pre-treatment 2 hours, 24 hours, SU4312 3-30 μM, 7-NI 3-10 μM) is recorded as “attenuated MPP^+-triggered elevation of intracellular NO level”. In data set [4] (15 min post-administration), the “detection in the brain, 15 min” value was “could rapidly penetrate into the brain and be detected in the brain 15 min post-administration”. Also, the “detection in the brain, 60 min” value in data set [4] (60 min after administration) is “almost no SU4312 was detected in the brain”.

In the case of `Clc1ccc(Nc2nnc(Cc3ccncc3)c3ccccc23)cc1` [PTK787/ZK222584], in data set [3], the “cell proliferative or cytotoxic effects of the drug alone, PC12 cells” value was “did not show cell proliferative or cytotoxic effects”; the “toxicity to PC12 cells at higher concentration” value is on record as “at higher concentration conferred toxicity”; the “MPP+-induced neuronal death in PC12 cells (MTT)” value is reported as “at 3 μM failed to block neuronal loss induced by MPP^+”. Besides, in data set [5], the “inhibition of recombinant human iNOS” value was “did not inhibit any of the isoforms even at 1 mM”.
